The values that follow come from US4921860A, “Quinuclidyl- and tropanyl-pyridyl ethers as 5-HT3 receptor antagonists” (John Wyeth and Brother, Limited, priority 1987, dated 1990).

SMILES strings stand for the structures.

The target of experiment [1] is T1, 5-HT3 receptors (Rattus norvegicus, UniProt P35563).
T1 construct: tested for 5-HT3 receptor antagonism in the isolated vagus nerve of the rat; from tissue; host or cells: isolated cervical vagus nerve of the rat
T1 sequence (P35563 24-483): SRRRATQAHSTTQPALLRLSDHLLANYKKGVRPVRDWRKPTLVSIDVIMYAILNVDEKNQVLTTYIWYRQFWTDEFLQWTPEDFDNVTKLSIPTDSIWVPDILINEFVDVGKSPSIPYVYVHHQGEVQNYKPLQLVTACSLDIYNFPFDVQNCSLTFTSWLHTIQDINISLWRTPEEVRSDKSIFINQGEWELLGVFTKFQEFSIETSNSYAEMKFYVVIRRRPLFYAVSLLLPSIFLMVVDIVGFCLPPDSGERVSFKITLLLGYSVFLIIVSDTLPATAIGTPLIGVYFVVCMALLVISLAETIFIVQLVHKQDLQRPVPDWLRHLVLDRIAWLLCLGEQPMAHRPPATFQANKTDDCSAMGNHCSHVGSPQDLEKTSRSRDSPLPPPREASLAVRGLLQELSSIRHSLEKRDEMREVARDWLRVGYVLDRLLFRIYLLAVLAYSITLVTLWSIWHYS
The experiment can be described thus: 5-HT3 receptor antagonism in the isolated vagus nerve of the rat (5-HT induced depolarisation). It counts as cell-based. The note with it: isolated rat cervical vagus nerve; estimated from 5-HT concentration ratios; read-out: apparent pKB (KB is the antagonist dissociation constant) (converted). On the procedure:
The pyridyl ethers are tested for 5-HT3 receptor antagonism in the isolated vagus nerve of the rat by a method based upon that of Ireland S. J. and Tyers M. B. Brit. J. Phamacol., 1987, 90, 229-238. The procedure relies upon the ability of 5-HT to induce depolaraisation of neurones in the cervical vagus nerve by a direct action of 5-HT3 receptors. A concentration response curve to 5-HT induced depolaraisation is obtained and the antagonists are added to the bath containing the isolated nerve before repeating the 5-HT concentration-response curve. Antagonist potency is estimated from the 5-HT concentration ratios and expressed as an apparent pKB value (where KB is the antagonist dissociation constant).

Experiment [2] addresses T2, 5-HT3 receptors (Oryctolagus cuniculus, UniProt A0A5F9C9J3).
T2 construct: 5-HT3 antagonistic activity in the isolated right atrium of the rabbit heart; from tissue; host or cells: isolated right atrium of the rabbit heart (sympathetic nerve terminals)
T2 sequence (A0A5F9C9J3 1-494): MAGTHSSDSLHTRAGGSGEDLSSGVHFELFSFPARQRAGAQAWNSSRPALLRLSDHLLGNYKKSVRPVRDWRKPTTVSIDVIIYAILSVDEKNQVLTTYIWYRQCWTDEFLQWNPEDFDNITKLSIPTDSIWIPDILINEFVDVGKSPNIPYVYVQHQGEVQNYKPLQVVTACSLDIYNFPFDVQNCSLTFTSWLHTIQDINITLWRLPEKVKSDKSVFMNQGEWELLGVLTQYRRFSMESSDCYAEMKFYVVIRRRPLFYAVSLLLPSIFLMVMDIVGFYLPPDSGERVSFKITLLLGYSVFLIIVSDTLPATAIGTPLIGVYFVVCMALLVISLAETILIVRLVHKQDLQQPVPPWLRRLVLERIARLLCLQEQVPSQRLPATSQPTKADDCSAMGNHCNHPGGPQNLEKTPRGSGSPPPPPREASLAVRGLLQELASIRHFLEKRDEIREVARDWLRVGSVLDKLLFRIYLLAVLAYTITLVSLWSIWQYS
Nature of the experiment: 5-HT3 antagonistic activity in the isolated right atrium of the rabbit heart. It counts as cell-based. The note with it: 5-HT evoked increase in spontaneous rate, read-out: apparent PKB (converted). On the procedure:
The compounds of the invention are also tested for 5-HT3 antagonistic activity in the isolated right atrium of the rabbit heart based upon the method of Fozard J. R., Naunyn-Schmiedeberg's Arch. Pharmacol., 1984, 326, 36-44. The procedures relies upon the ability of 5-HT to stimulate 5-HT3 receptors present on sympathetic nerve terminals in the heart, causing release of noradrenaline which evokes an increase in the spontaneous rate of […]. The antagonist potency is expressed in a similar manner to that of the preceding test method i.e. as an apparent PKB.

Broadly, the Kb is the equilibrium dissociation constant of an antagonist, usually derived from a functional assay. On to `CN1[C@@H]2CC[C@H]1C[C@@H](Oc1ccccn1)C2` [Example 1, Endo 8 methyl-3-(2-pyridinyloxy)-8-azabicyclo[3.2.1]octane], for which the Kb on 5-HT3 receptors [1] is 631 nM. Besides, on 5-HT3 receptors [2], the Kd was 39.8 nM.
